Results: patent US9271936B2, “Method for forming mesoporous silica nanoparticles, mesoporous silica nanoparticles, and applications thereof” (UNIVERSITY OF MARYLAND, priority 2008, dated 2016)

Experiments:
[1] = cited from earlier work
[2] = Loading (uptake) of target material into MSN, UV-Vis spectroscopy; format: physicochemical
[3] = Release of target material from MSN, UV-Vis spectroscopy; conditions: after subsequent pH decrease to approximately pH 5.0

uptake into MSN [2]: approximately 3 ug/mg MSN
amount released per mg of MSN at equilibrium [3]: about 7.5 ug per mg of MSN
Compound: COc1cccc2c1C(=O)c1c(O)c3c(c(O)c1C2=O)C[C@@](O)(C(=O)CO)C[C@@H]3O[C@H]1C[C@H](N)[C@H](O)[C@H](C)O1 [doxorubicin]
pKa [1]: ~7
